Results: PMC7385619, “A triple action CDK4/6-PI3K-BET inhibitor with augmented cancer cell cytotoxicity” (Cell Discovery, 2020)
Like-named read-outs stand apart in the source and are kept apart here.

What was measured:
Assay in all cases: KINOMEscan assay (Eurofins DiscoverX)
Type in all cases: binding
[1] = biological target: T1, kinome (kinase panel) (Homo sapiens, UniProt O43353); conditions: RIPK2; 1000 nM; read-out: Percent Control
T1 construct: purchased Eurofins DiscoverX

[2] = biological target: T2, kinome (kinase panel) (Homo sapiens, UniProt O00329); conditions: PIK3CD; 1000 nM; read-out: Percent Control
T2 construct: purchased Eurofins DiscoverX

[3] = biological target: T3, kinome (kinase panel) (Homo sapiens, UniProt P51451); conditions: BLK; 1000 nM; read-out: Percent Control
T3 construct: purchased Eurofins DiscoverX

[4] = biological target: T4, kinome (kinase panel) (Homo sapiens, UniProt Q8TBX8); conditions: PIP5K2C (Entrez PIP4K2C); 1000 nM; read-out: Percent Control
T4 construct: purchased Eurofins DiscoverX

[5] = biological target: T5, kinome (kinase panel) (Homo sapiens, UniProt Q9UK32); conditions: 1000 nM, read-out: Percent Control
T5 construct: purchased Eurofins DiscoverX
T5 sequence (Q9UK32 whole entry): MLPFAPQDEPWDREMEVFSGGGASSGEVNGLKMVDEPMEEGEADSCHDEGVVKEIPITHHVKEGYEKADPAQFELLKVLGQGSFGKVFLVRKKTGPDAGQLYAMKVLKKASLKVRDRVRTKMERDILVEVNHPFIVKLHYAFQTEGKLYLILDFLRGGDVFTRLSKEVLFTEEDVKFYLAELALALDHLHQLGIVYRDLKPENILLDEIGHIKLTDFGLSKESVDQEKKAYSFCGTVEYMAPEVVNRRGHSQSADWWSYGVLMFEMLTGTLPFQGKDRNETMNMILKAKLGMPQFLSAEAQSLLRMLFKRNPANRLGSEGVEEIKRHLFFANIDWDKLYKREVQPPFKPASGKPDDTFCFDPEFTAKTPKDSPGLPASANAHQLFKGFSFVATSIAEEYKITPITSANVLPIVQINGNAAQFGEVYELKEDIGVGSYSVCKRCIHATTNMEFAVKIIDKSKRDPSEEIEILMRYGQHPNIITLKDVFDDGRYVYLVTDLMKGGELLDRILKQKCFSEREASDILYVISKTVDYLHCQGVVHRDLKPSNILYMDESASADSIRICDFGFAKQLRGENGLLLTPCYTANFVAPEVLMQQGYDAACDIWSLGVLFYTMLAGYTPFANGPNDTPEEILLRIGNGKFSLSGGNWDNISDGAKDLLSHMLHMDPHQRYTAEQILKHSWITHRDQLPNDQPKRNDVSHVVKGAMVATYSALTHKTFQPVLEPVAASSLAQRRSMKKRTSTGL

[6] = biological target: T6, kinome (kinase panel) (Homo sapiens, UniProt Q96NX5); conditions: CAMK1G; 1000 nM; read-out: Percent Control
T6 construct: purchased Eurofins DiscoverX

[7] = biological target: T7, kinome (kinase panel) (Homo sapiens, UniProt Q13705); conditions: ACVR2B; 1000 nM; read-out: Percent Control
T7 construct: purchased Eurofins DiscoverX

[8] = biological target: T8, kinome (kinase panel) (Homo sapiens, UniProt P27448); conditions: MARK3; 1000 nM; read-out: Percent Control
T8 construct: purchased Eurofins DiscoverX

[9] = biological target: T9, kinome (kinase panel) (Homo sapiens, UniProt P42338); conditions: PIK3CB; 1000 nM; read-out: Percent Control
T9 construct: purchased Eurofins DiscoverX

[10] = biological target: T10, kinome (kinase panel) (Homo sapiens, UniProt Q9UBF8); conditions: PIK4CB (Entrez PI4KB); 1000 nM; read-out: Percent Control
T10 construct: purchased Eurofins DiscoverX

[11] = biological target: T11, kinome (kinase panel) (Homo sapiens, UniProt P28482); conditions: ERK2 (Entrez MAPK1); 1000 nM; read-out: Percent Control
T11 construct: purchased Eurofins DiscoverX

[12] = biological target: T12, kinome (kinase panel) (Homo sapiens, UniProt P10721, L576P); conditions: […]; 1000 nM; read-out: Percent Control
T12 construct: purchased Eurofins DiscoverX
T12 sequence (P10721 26-976 L576P): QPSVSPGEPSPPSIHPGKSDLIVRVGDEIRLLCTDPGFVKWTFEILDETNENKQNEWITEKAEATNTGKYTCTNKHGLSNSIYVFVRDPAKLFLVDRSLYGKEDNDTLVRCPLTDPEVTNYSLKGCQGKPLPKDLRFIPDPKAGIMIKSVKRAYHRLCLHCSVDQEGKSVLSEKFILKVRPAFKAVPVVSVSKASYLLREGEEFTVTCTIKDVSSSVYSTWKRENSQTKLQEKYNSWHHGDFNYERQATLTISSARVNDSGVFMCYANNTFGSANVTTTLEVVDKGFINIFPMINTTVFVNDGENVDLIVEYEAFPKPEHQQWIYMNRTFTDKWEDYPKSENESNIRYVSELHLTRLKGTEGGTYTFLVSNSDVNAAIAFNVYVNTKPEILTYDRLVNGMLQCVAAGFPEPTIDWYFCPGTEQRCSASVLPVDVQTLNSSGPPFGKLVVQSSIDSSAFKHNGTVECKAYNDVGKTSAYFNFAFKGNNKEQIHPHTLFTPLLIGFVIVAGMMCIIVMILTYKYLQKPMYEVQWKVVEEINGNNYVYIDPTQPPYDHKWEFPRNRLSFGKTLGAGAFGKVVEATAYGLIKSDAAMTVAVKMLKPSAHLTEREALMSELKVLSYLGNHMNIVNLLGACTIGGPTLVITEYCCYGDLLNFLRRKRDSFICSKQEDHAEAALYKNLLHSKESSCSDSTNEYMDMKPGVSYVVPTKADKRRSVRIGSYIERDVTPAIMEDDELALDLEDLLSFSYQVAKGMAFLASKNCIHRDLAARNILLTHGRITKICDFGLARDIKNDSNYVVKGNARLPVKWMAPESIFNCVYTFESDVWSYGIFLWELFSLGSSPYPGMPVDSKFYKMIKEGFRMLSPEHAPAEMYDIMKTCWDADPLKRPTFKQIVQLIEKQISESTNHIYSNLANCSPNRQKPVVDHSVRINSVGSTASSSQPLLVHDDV

[13] = biological target: T13, kinome (kinase panel) (Homo sapiens, UniProt P25098); conditions: GRK2 (Entrez ADRBK1); 1000 nM; read-out: Percent Control
T13 construct: purchased Eurofins DiscoverX
T13 sequence (P25098 whole entry): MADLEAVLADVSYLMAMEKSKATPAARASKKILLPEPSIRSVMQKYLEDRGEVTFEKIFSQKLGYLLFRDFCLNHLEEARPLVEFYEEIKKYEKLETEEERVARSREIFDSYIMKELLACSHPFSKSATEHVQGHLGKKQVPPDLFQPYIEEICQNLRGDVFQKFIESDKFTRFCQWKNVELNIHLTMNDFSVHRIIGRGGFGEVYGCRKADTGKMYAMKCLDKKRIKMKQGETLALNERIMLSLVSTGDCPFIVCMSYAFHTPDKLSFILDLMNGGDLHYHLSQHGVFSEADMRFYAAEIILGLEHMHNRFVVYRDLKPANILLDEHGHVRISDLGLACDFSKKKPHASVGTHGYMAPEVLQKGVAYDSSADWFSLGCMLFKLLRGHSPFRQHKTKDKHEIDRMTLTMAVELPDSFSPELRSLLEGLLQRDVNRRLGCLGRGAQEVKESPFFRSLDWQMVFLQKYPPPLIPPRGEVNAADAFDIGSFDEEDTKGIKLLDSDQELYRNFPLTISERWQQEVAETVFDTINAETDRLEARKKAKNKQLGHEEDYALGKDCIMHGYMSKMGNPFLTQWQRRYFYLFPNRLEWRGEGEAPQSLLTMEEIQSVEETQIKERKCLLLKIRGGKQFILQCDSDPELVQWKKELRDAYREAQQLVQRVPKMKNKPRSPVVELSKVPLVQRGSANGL

[14] = biological target: T14, kinome (kinase panel) (Homo sapiens, UniProt Q9P0L2); conditions: MARK1; 1000 nM; read-out: Percent Control
T14 construct: purchased Eurofins DiscoverX
T14 sequence (Q9P0L2 whole entry): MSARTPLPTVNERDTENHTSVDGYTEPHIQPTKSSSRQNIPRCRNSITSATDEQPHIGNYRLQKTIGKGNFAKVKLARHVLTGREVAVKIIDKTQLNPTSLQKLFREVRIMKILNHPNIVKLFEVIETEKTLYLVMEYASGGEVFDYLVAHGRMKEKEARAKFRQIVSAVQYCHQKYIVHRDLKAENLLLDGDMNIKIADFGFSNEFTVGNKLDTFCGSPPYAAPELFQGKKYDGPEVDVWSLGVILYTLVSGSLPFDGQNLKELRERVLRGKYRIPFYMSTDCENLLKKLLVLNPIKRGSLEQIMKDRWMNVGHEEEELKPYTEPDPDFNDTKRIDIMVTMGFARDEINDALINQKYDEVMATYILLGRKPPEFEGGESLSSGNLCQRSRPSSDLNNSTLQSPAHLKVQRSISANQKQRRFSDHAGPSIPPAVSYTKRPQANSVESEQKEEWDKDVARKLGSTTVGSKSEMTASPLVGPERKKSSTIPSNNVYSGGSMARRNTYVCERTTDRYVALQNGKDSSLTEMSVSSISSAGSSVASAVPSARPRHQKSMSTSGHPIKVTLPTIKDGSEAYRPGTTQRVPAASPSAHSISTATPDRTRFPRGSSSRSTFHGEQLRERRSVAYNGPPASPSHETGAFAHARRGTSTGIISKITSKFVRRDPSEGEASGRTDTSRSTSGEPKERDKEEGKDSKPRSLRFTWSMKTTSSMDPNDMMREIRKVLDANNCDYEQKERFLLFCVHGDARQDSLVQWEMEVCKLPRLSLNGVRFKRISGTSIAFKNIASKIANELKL

[15] = biological target: T15, kinome (kinase panel) (Homo sapiens, UniProt Q99558); conditions: NIK (Entrez MAP3K14); 1000 nM; read-out: Percent Control
T15 construct: purchased Eurofins DiscoverX

[16] = biological target: T16, kinome (kinase panel) (Homo sapiens, UniProt Q8IY84); conditions: NIM1 (Entrez MGC42105); 1000 nM; read-out: Percent Control
T16 construct: purchased Eurofins DiscoverX
T16 sequence (Q8IY84 whole entry): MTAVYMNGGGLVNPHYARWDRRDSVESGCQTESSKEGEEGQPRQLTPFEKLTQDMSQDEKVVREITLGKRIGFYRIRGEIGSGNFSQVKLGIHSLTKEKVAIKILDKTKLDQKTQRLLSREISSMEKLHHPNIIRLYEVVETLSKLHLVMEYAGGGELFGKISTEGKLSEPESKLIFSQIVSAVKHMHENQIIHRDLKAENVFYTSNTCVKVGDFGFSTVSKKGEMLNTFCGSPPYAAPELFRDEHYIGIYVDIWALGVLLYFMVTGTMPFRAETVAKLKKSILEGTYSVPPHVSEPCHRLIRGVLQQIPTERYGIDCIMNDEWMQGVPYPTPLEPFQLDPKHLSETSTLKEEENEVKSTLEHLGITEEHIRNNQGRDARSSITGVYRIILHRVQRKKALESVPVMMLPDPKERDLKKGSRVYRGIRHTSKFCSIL

[17] = biological target: T17, kinome (kinase panel) (Homo sapiens, UniProt P00533, L858R/T790M); conditions: read-out: Percent Control
T17 construct: purchased Eurofins DiscoverX

[18] = biological target: T18, kinome (kinase panel) (Homo sapiens, UniProt P43405); conditions: SYK; 1000 nM; read-out: Percent Control
T18 construct: purchased Eurofins DiscoverX

[19] = biological target: T19, kinome (kinase panel) (Homo sapiens, UniProt Q9HC98); conditions: NEK6; 1000 nM; read-out: Percent Control
T19 construct: purchased Eurofins DiscoverX
T19 sequence (Q9HC98 whole entry): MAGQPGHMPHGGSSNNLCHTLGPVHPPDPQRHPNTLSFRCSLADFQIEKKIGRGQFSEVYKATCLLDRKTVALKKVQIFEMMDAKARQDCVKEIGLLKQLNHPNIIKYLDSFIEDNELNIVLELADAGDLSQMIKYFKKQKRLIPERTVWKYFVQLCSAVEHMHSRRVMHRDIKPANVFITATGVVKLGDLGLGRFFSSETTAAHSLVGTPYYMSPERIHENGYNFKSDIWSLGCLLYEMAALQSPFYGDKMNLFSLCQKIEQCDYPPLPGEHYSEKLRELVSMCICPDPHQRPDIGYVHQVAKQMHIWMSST

[20] = biological target: T20, kinome (kinase panel) (Homo sapiens, UniProt Q04759); conditions: PRKCQ; 1000 nM; read-out: Percent Control
T20 construct: purchased Eurofins DiscoverX

[21] = biological target: T21, kinome (kinase panel) (Homo sapiens, UniProt P54760); conditions: EPHB4; 1000 nM; read-out: Percent Control
T21 construct: purchased Eurofins DiscoverX
T21 sequence (P54760 16-987): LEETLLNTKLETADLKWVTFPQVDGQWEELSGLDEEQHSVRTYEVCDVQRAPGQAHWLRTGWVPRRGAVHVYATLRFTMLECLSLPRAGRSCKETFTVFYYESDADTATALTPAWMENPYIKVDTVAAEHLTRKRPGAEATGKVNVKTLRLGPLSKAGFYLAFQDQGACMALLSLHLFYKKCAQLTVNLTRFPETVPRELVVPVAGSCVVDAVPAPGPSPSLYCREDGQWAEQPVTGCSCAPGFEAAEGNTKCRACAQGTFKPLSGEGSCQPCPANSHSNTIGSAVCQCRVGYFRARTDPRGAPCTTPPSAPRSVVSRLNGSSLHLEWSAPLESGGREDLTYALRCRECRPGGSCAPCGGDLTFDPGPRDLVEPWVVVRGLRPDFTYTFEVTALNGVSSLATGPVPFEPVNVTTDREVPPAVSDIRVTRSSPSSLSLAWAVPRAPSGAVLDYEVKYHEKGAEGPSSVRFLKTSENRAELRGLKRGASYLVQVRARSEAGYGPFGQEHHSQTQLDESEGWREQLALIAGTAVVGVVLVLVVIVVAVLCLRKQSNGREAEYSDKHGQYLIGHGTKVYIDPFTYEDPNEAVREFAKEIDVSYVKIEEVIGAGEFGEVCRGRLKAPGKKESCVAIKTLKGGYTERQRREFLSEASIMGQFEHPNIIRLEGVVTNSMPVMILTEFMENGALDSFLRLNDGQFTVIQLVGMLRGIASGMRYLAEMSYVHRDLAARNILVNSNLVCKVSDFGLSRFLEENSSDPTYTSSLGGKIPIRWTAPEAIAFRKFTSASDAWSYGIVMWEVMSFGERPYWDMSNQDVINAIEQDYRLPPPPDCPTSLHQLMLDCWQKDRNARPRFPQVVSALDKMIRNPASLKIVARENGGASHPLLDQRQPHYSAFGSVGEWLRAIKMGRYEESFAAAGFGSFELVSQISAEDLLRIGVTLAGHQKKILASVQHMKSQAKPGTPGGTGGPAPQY

[22] = biological target: T22, kinome (kinase panel) (Homo sapiens, UniProt P42680); conditions: TEC; 1000 nM; read-out: Percent Control
T22 construct: purchased Eurofins DiscoverX

[23] = biological target: T23, kinome (kinase panel) (Homo sapiens, UniProt P10721, A829P); conditions: […]; 1000 nM; read-out: Percent Control
T23 construct: purchased Eurofins DiscoverX
T23 sequence (P10721 26-976 A829P): as the sequence (P10721 26-976 L576P) above, with P551L, A804P counted along it

[24] = biological target: T24, kinome (kinase panel) (Homo sapiens, UniProt Q06187); conditions: BTK; 1000 nM; read-out: Percent Control
T24 construct: purchased Eurofins DiscoverX

[25] = biological target: T25, kinome (kinase panel) (Homo sapiens, UniProt P49137); conditions: MAPKAPK2; 1000 nM; read-out: Percent Control
T25 construct: purchased Eurofins DiscoverX

[26] = biological target: T26, kinome (kinase panel) (Homo sapiens, UniProt P10721, D816V); conditions: […]; 1000 nM; read-out: Percent Control
T26 construct: purchased Eurofins DiscoverX
T26 sequence (P10721 26-976 D816V): as the sequence (P10721 26-976 L576P) above, with P551L, D791V counted along it

[27] = biological target: T27, kinome (kinase panel) (Homo sapiens, UniProt Q8IYT8); conditions: ULK2; 1000 nM; read-out: Percent Control
T27 construct: purchased Eurofins DiscoverX

[28] = biological target: T28, kinome (kinase panel) (Homo sapiens, UniProt Q9Y3S1); conditions: WNK2; 1000 nM; read-out: Percent Control
T28 construct: purchased Eurofins DiscoverX

[29] = biological target: T29, kinome (kinase panel) (Homo sapiens, UniProt P53667); conditions: LIMK1; 1000 nM; read-out: Percent Control
T29 construct: purchased Eurofins DiscoverX

[30] = biological target: T30, kinome (kinase panel) (Homo sapiens, UniProt Q9H4A3); conditions: WNK1; 1000 nM; read-out: Percent Control
T30 construct: purchased Eurofins DiscoverX

[31] = biological target: T31, kinome (kinase panel) (Homo sapiens, UniProt Q9UEE5); conditions: DRAK1 (Entrez STK17A); 1000 nM; read-out: Percent Control
T31 construct: purchased Eurofins DiscoverX

[32] = biological target: T32, kinome (kinase panel) (Homo sapiens, UniProt O95819); conditions: MAP4K4; 1000 nM; read-out: Percent Control
T32 construct: purchased Eurofins DiscoverX

Structure (SMILES): CN(C)C(=O)c1cc2cnc(Nc3ccc(-c4csc5c(=O)cc(N6CCOCC6)oc45)cc3)nc2n1C1CCCC1 [SRX3177]
- remaining binding at 1 µM [1]: 93%
- remaining binding at 1 µM [2]: 63%
- remaining binding at 1 µM [3]: 100%
- remaining binding at 1 µM [4]: 1.8%
- remaining binding at 1 µM ([5]; RSK4(Kin.Dom.1-N-terminal) (RPS6KA6)): 90%
- remaining binding at 1 µM ([5]; RSK4(Kin.Dom.2-C-terminal) (RPS6KA6)): 90%
- remaining binding at 1 µM [6]: 75%
- remaining binding at 1 µM [7]: 87%
- remaining binding at 1 µM [8]: 85%
- remaining binding at 1 µM [9]: 22%
- remaining binding at 1 µM [10]: 19%
- remaining binding at 1 µM [11]: 100%
- remaining binding at 1 µM [12]: 58%
- remaining binding at 1 µM [13]: 73%
- remaining binding at 1 µM [14]: 100%
- remaining binding at 1 µM [15]: 45%
- remaining binding at 1 µM [16]: 69%
- remaining binding at 1 µM [17]: 58%
- remaining binding at 1 µM [18]: 81%
- remaining binding at 1 µM [19]: 100%
- remaining binding at 1 µM [20]: 73%
- remaining binding at 1 µM [21]: 98%
- remaining binding at 1 µM [22]: 95%
- remaining binding at 1 µM [23]: 1.6%
- remaining binding at 1 µM [24]: 67%
- remaining binding at 1 µM [25]: 100%
- remaining binding at 1 µM [26]: 23%
- remaining binding at 1 µM [27]: 79%
- remaining binding at 1 µM [28]: 77%
- remaining binding at 1 µM [29]: 85%
- remaining binding at 1 µM [30]: 93%
- remaining binding at 1 µM [31]: 100%
- remaining binding at 1 µM [32]: 100%
